Assay results reported in PubChem BioAssay AID493062 (The Scripps Research Institute Molecular Screening Center, 2011).

What was measured:
2B4/BCL-2 = assay: MCL-1-selective apoptosis induction in 2B4 cells – cell-based, fluorescence, assay provider data, selectivity assay for MCL1-BIM inhibitor project, late-stage follow-up (AID 493062); conditions: 2B4/MCL-1 caspase activation fluorescence
2B4/MCL-1 = assay: as above; conditions: 2B4/MCL-1 caspase activation fluorescence

| Structure (SMILES) | EC50 (2B4/BCL-2) [µM] | EC50 (2B4/MCL-1) [µM] |
| --- | --- | --- |
| CCCn1c(N)c(N(CCOC)C(=O)c2cc(-c3ccco3)nc3ccccc23)c(=O)[nH]c1=O | > 25 | > 25 |
| COc1ccc(-c2cc(=O)oc3cc(OCC(=O)N4CC4)ccc23)cc1 | > 25 | > 25 |
| COc1ccc(Cc2nnc(NC(=O)C(=O)c3ccco3)s2)cc1OC | > 25 | > 25 |
| COc1ccc(Cc2nnc(NC(=O)Cc3ccccc3C)s2)cc1OC | > 25 | > 25 |
| CCOC(=O)C1CCCN(C(=O)c2cc(-c3ccco3)nc3ccccc23)C1 (configuration not stated) | > 25 | > 25 |

Other lines, results leading:

| EC50 (2B4/BCL-2) [µM] | EC50 (2B4/MCL-1) [µM] | Structure (SMILES) |
| --- | --- | --- |
| > 25 | 10 | O=C(Nc1cccnc1)c1cc(-c2ccco2)nc2ccc(Br)cc12 |
| > 25 | > 25 | COc1ccc(NC(=O)c2cc(-c3ccc(C)o3)nc3ccccc23)cc1OC |
| > 25 | > 25 | CC1CCCN(C(=O)c2cc(-c3ccco3)nc3ccccc23)C1 (configuration not stated) |
| 0.6 | 25 | Cc1cccc(NC(=O)c2cc(-c3ccco3)nc3ccc(Br)cc23)n1 |
| > 25 | > 25 | CN(CC(=O)Nc1ccc(F)cc1)C(=O)c1cc(-c2ccco2)nc2ccccc12 |
| > 25 | > 25 | Cc1ccc(-c2cc(C(=O)Nc3ccccc3C)c3ccccc3n2)o1 |
